In patent publication US6362369B1, “Phthalic acid diamide derivatives fluorine-containing aniline compounds as starting material, agricultural and horticultural insecticides, and a method for application of the insecticides” (Nihon Nohyaku Co., Ltd., priority 1997, dated 2002):

Tests used:
Assay type in all cases: in vivo
[1] = system: diamondback moth (Plutella xylostella); assay: Insecticidal effect on diamondback moth (Test Example 1); conditions: mortality judged according to the criterion shown in Test Example 1
Method in brief: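 Chinese cabbage seedlings carrying eggs laid by released adult moths were immersed in treatment, air-dried and held at 25° C. Hatched insects were counted six days after immersion, and mortality was calculated and scored against a fixed criterion. Three replicate groups of 10 insects were used.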

[2] = system: common cutworm (Spodoptera Litura); assay: Insecticidal effect on common cutworm (Test Example 2); conditions: 500 ppm, cabbage leaf dip, second-instar larvae, eight days after inoculation, 25° C.
Method in brief: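 Second-instar larvae placed in 9 cm Petri dishes with air-dried treated material, held at 25 °C. Dead and live insects counted 8 days after inoculation; mortality calculated and scored against a set criterion. Triplicate groups of 10 insects.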

[3] = system: rice leafroller (Cnaphalocrocis medinalis); assay: Insecticidal effect on rice leafroller (Test Example 3); conditions: 500 ppm, rice lamina dip, third-instar larvae, four days after inoculation, 25° C., humidity 70%
Method in brief: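 Groups of 10 third-instar larvae, in triplicate, are placed on air-dried lamina resting on wet filter paper. Incubation runs four days at 25° C with 70% humidity before survivors and dead are tallied.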

Row | Compound | Insecticidal effect on diamondback moth (Test Example 1), judged grade [1] | Insecticidal effect on common cutworm (Test Example 2), judged grade [2] | Insecticidal effect on rice leafroller (Test Example 3), judged grade [3]
1 | CC(C)NC(=O)c1c(C(=O)Nc2ccc(OC(F)F)cc2)cccc1[N+](=O)[O-] [compound 617] | A (100) | A (100) | A (100)
2 | CC(C)NC(=O)c1c(C(=O)Nc2ccc(OC(F)(F)F)cc2)cccc1[N+](=O)[O-] [compound 618] | A (100) | A (100) | A (100)
3 | CC(C)NC(=O)c1c(C(=O)Nc2ccc(OC(F)(F)C(F)OC(F)(F)C(F)(F)C(F)(F)F)cc2)cccc1[N+](=O)[O-] (stereo not drawn) [compound 619] | A (100) | A (100) | A (100)
4 | CC(C)NC(=O)c1c(C(=O)Nc2ccc(SC(F)F)cc2)cccc1[N+](=O)[O-] [compound 625] | A (100) | D (79-50) | D (79-50)
5 | CC(C)NC(=O)c1c(C(=O)Nc2ccc(SC(F)(F)C(F)(F)Br)cc2)cccc1[N+](=O)[O-] [compound 628] | A (100) | B (99-90) | A (100)
6 | CC(C)NC(=O)c1c(C(=O)Nc2ccc(Cl)c(Cl)c2)cccc1[N+](=O)[O-] [compound 636] | A (100) | D (79-50) | A (100)
7 | Cc1ccc(NC(=O)c2cccc([N+](=O)[O-])c2C(=O)NC(C)C)c(C)c1 [compound 648] | A (100) | D (79-50) | A (100)
8 | Cc1c(Cl)cccc1NC(=O)c1cccc([N+](=O)[O-])c1C(=O)NC(C)C [compound 663] | A (100) | A (100) | D (79-50)
9 | Cc1ccc(Cl)cc1NC(=O)c1cccc([N+](=O)[O-])c1C(=O)NC(C)C [compound 665] | A (100) | A (100) | B (99-90)
10 | CCc1cc(Cl)ccc1NC(=O)c1cccc([N+](=O)[O-])c1C(=O)NC(C)C [compound 667] | A (100) | A (100) | A (100)
11 | Cc1c(Cl)ccc(NC(=O)c2cccc([N+](=O)[O-])c2C(=O)NC(C)C)c1C [compound 669] | A (100) | D (79-50) | A (100)
12 | Cc1cc(I)ccc1NC(=O)c1cccc([N+](=O)[O-])c1C(=O)NC(C)C [compound 673] | A (100) | D (79-50) | D (79-50)
13 | Cc1c(F)cccc1NC(=O)c1cccc([N+](=O)[O-])c1C(=O)NC(C)C [compound 674] | A (100) | D (79-50) | A (100)
14 | Cc1cc(F)ccc1NC(=O)c1cccc([N+](=O)[O-])c1C(=O)NC(C)C [compound 675] | A (100) | A (100) | A (100)
15 | Cc1ccc(F)cc1NC(=O)c1cccc([N+](=O)[O-])c1C(=O)NC(C)C [compound 676] | A (100) | C (89-80) | A (100)
16 | Cc1c(NC(=O)c2cccc([N+](=O)[O-])c2C(=O)NC(C)C)cccc1C(F)(F)F [compound 681] | A (100) | A (100) | A (100)
17 | Cc1cc(C(F)(F)C(F)(F)F)ccc1NC(=O)c1cccc([N+](=O)[O-])c1C(=O)NC(C)C [compound 683] | A (100) | A (100) | A (100)
18 | Cc1cc(C(F)(F)C(F)(F)C(F)(F)F)ccc1NC(=O)c1cccc([N+](=O)[O-])c1C(=O)NC(C)C [compound 684] | A (100) | A (100) | A (100)
19 | Cc1cc(C(F)(F)C(F)(F)C(F)(F)C(F)(F)F)ccc1NC(=O)c1cccc([N+](=O)[O-])c1C(=O)NC(C)C [compound 686] | A (100) | A (100) | A (100)
20 | COc1cccc(NC(=O)c2cccc([N+](=O)[O-])c2C(=O)NC(C)C)c1C [compound 687] | A (100) | D (79-50) | D (79-50)
21 | COc1ccc(NC(=O)c2cccc([N+](=O)[O-])c2C(=O)NC(C)C)c(C)c1C [compound 689] | A (100) | D (79-50) | A (100)
22 | COc1cc(NC(=O)c2cccc([N+](=O)[O-])c2C(=O)NC(C)C)cc(C(F)(F)F)c1 [compound 691] | A (100) | D (79-50) | C (89-80)
23 | Cc1c(NC(=O)c2cccc([N+](=O)[O-])c2C(=O)NC(C)C)cccc1OC(F)F [compound 695] | A (100) | A (100) | A (100)
24 | Cc1cc(OC(F)F)ccc1NC(=O)c1cccc([N+](=O)[O-])c1C(=O)NC(C)C [compound 696, N^1-(4-difluoromethoxy-2-methylphenyl)-N^2-isopropyl-3-nitrophthalic acid diamide] | A (100) | A (100) | A (100)
25 | Cc1cc(OC(F)(F)C(F)(F)Br)ccc1NC(=O)c1cccc([N+](=O)[O-])c1C(=O)NC(C)C [compound 698] | A (100) | B (99-90) | A (100)
